From PMC10729961, “Putative purine nucleoside interacting residues in the malaria parasite purine uptake transporter PfENT1 are critical for transporter function” (PLOS ONE, 2023)

Columns and labels:
[1] = tested on: yeast expressing N51C PfENT1; test: 24-h adenosine-dependent growth assay; type: cell-based; details: mean±SEM
Procedure: (§1) The Bioscreen C (Model #: 61400PRO) machine was used to measure proliferation of yeast expressing either wild type or mutant PfENT1 in 24-h assays. Yeast strains were grown overnight in SDM media plus 1 mM adenine. Yeast were spun down and resuspended in sterile water. Yeast were added into wells of honeycomb plates specific for the Bioscreen C (Fisher Scientific Cat No. #NC9976780) to achieve a final OD600 of 0.05 in the total volume of 150 μl per well of yeast and media. […] Each trial contained technical triplicates of every sample. The honeycomb plates were placed in the Bioscreen C where they were shaken continuously on high for 24-h at 30°C. OD600 was measured every 15 min.
(§2) For calculating the doubling time, the formula used was: Dt=ln(2)/kwherek=thegrowthrate
(§3) The k was calculated in Excel using the OD600 values in the growth curve that represented exponential growth (OD600 between 0.2 and 0.6). Alternatively, this formula can also be used: Dt=ln(2)/([ln(OD2)−ln(OD1)]/t2−t1)

[2] = tested on: yeast expressing S49C PfENT1; test: 24-h adenosine-dependent growth assay; type: cell-based; details: mean±SEM
Procedure: as §1, §2, §3

[3] = tested on: yeast expressing F288C PfENT1; test: 24-h adenosine-dependent growth assay; type: cell-based; details: mean±SEM
Procedure: as §1, §2, §3

[4] = tested on: yeast expressing V52C PfENT1; test: 24-h adenosine-dependent growth assay; type: cell-based; details: mean±SEM
Procedure: as §1, §2, §3

[5] = tested on: yeast expressing L50C PfENT1; test: 24-h adenosine-dependent growth assay; type: cell-based; details: for Avg. Doubling time (h) Adenosine growth assay 1 mM: 1 mM adenosine sole purine source; for Avg. Doubling time (h) Adenosine growth assay 1 mM / Avg. Doubling time (h) Adenosine growth assay 2 mM: 24 h, mean±SEM; for Avg. Doubling time (h) Adenosine growth assay 2 mM: 2 mM adenosine sole purine source
Procedure: as §1, §2, §3

[6] = tested on: yeast expressing T136C PfENT1; test: 24-h adenosine-dependent growth assay; type: cell-based; details: mean±SEM
Procedure: as §1, §2, §3

[7] = tested on: yeast expressing I137C PfENT1; test: 24-h adenosine-dependent growth assay; type: cell-based; details: mean±SEM
Procedure: as §1, §2, §3

[8] = tested on: yeast expressing WT PfENT1; test: 24-h adenosine-dependent growth assay; type: cell-based; details: mean±SEM; for Avg. Doubling time (h) Adenosine growth assay 1 mM: 1 mM adenosine sole purine source; for Avg. Doubling time (h) Adenosine growth assay 2 mM: 2 mM adenosine sole purine source
Procedure: as §1, §2, §3

[9] = tested on: yeast expressing L289C PfENT1; test: 24-h adenosine-dependent growth assay; type: cell-based; details: mean±SEM
Procedure: as §1, §2, §3

[10] = tested on: yeast expressing S48C PfENT1; test: 24-h adenosine-dependent growth assay; type: cell-based; details: mean±SEM
Procedure: as §1, §2, §3

[11] = tested on: yeast expressing F286C PfENT1; test: 24-h adenosine-dependent growth assay; type: cell-based
Procedure: as §1, §2, §3

[12] = tested on: yeast expressing A134C PfENT1; test: 24-h adenosine-dependent growth assay; type: cell-based; details: mean±SEM
Procedure: as §1, §2, §3

[13] = tested on: yeast expressing W53C PfENT1; test: 24-h adenosine-dependent growth assay; type: cell-based; parameters: key: Mutant strains that did not grow are indicated by (ng, no growth)
Procedure: as §1, §2, §3

[14] = tested on: purine auxotrophic yeast (ade2Δ, fui1Δ); test: 24-h adenosine-dependent growth assay; type: cell-based; parameters: key: Mutant strains that did not grow are indicated by (ng, no growth); details: ade2Δ strain
Procedure: as §1, §2, §3

[15] = tested on: yeast expressing S290C PfENT1; test: 24-h adenosine-dependent growth assay; type: cell-based; parameters: key: Mutant strains that did not grow are indicated by (ng, no growth)
Procedure: as §1, §2, §3

[16] = tested on: yeast expressing Q135C PfENT1; test: 24-h adenosine-dependent growth assay; type: cell-based; parameters: key: Mutant strains that did not grow are indicated by (ng, no growth)
Procedure: as §1, §2, §3

[17] = tested on: yeast expressing R291C PfENT1; test: 24-h adenosine-dependent growth assay; type: cell-based; parameters: key: Mutant strains that did not grow are indicated by (ng, no growth)
Procedure: as §1, §2, §3

[18] = tested on: yeast expressing D287C PfENT1; test: 24-h adenosine-dependent growth assay; type: cell-based; parameters: key: Mutant strains that did not grow are indicated by (ng, no growth)
Procedure: as §1, §2, §3

[19] = tested on: purine auxotrophic yeast (ade2Δ, fui1Δ); test: [3H]uridine uptake assay, competition with cold adenosine; type: cell-based; details: ade2Δ strain; cold adenosine vs [3H]uridine uptake, 15 min
Procedure: The radiolabeled uptake assay measures the ability of an unlabeled purine or pyrimidine substrate to inhibit the uptake of radiolabeled substrate into yeast via PfENT1 as previously described. Yeast strains containing PfENT1 (mutant or WT) were grown overnight in SDM media to a final OD600 between 0.2 and 0.5. Purine auxotrophic yeast used as a negative control were grown in YPD media. Yeast were spun down and washed three times with 15 mL phosphate buffered saline (PBS; 137 mM NaCl, 2.7 mM KCl, 10 mM KH2PO4, 10 mM Na2HPO4, pH 7.4). The final volume of yeast in PBS varied but it was diluted to a final OD600 = 0.2. […] For determination of minimal and maximal uptake, yeast strains were incubated without radioactivity or with radioactivity but no cold substrate competition, respectively. […] The amount of radioactivity in each well was measured by liquid scintillation counting using a 1450 MicroBeta TriLux (Perkin Elmer). The counts per minute (cpm) were recorded and technical triplicates were averaged. IC50 values were calculated, and statistical analysis was performed using GraphPad/Prism9 software. […]
Statistical significance was calculated using one-way analysis of variance (ANOVA) with GraphPad/Prism9 software. IC50 values were calculated using the non-linear regression dose-response inhibition log(inhibitor) vs normalized response program. […]

[20] = tested on: PfENT1 W53A; details: yeast expressing W53A, Y190A background; cited from earlier work
[21] = tested on: PfENT1 D287A; details: cited from earlier work
[22] = tested on: PfENT1 R291A; details: yeast expressing R291A, Y190A background; cited from earlier work
[23] = tested on: PfENT1 D287A; details: yeast expressing D287A, Y190A background; cited from earlier work
[24] = tested on: PfENT1 R291A; details: cited from earlier work
[25] = tested on: PfENT1 S49A; details: cited from earlier work
[26] = tested on: PfENT1 W53A; details: cited from earlier work
[27] = tested on: PfENT1 Q135A; details: yeast expressing Q135A, Y190A background; cited from earlier work
[28] = tested on: PfENT1 Q135A; details: cited from earlier work
[29] = 1 mM adenosine sole purine source
[30] = 2 mM adenosine sole purine source

## Nc1ncnc2c1ncn2[C@@H]1O[C@H](CO)[C@@H](O)[C@H]1O [Adenosine, adenosine]
[1]; [29]
  Avg. Doubling time (h) Adenosine growth assay 1 mM: 3.46 ± 0.26 h
[1]; [30]
  Avg. Doubling time (h) Adenosine growth assay 2 mM: 3.89 ± 0.41 h
[2]; [29]
  Avg. Doubling time (h) Adenosine growth assay 1 mM: 3.06 ± 0.28 h
[2]; [30]
  Avg. Doubling time (h) Adenosine growth assay 2 mM: 2.99 ± 0.16 h
[3]; [29]
  Avg. Doubling time (h) Adenosine growth assay 1 mM: 3.61 ± 0.60 h
[3]; [30]
  Avg. Doubling time (h) Adenosine growth assay 2 mM: 3.57 ± 0.53 h
[4]; [29]
  Avg. Doubling time (h) Adenosine growth assay 1 mM: 4.20 ± 0.23 h
[4]; [30]
  Avg. Doubling time (h) Adenosine growth assay 2 mM: 3.78 ± 0.29 h
[5]
  Avg. Doubling time (h) Adenosine growth assay 1 mM: 5.83 ± 0.47 h
  Avg. Doubling time (h) Adenosine growth assay 2 mM: 7.16 ± 1.21 h
[5]; listed as adenosine
  Avg. Doubling time (h) Adenosine growth assay 1 mM: 5.8 h
  Avg. Doubling time (h) Adenosine growth assay 2 mM: 7.2 h
[5]; in both 1 mM and 2 mM adenosine
  increase of doubling time compared to WT PfENT1 control: 1.9 fold
[6]; [29]
  Avg. Doubling time (h) Adenosine growth assay 1 mM: 3.12 ± 0.27 h
[6]; [30]
  Avg. Doubling time (h) Adenosine growth assay 2 mM: 3.06 ± 0.09 h
[7]; [29]
  Avg. Doubling time (h) Adenosine growth assay 1 mM: 3.99 ± 0.50 h
[7]; [30]
  Avg. Doubling time (h) Adenosine growth assay 2 mM: 3.5 ± 0.16 h
[8]
  Avg. Doubling time (h) Adenosine growth assay 1 mM: 3.13 ± 0.36 h
  Avg. Doubling time (h) Adenosine growth assay 2 mM: 3.72 ± 0.21 h
[8]; listed as adenosine
  Avg. Doubling time (h) Adenosine growth assay 1 mM: 3.1 h
  Avg. Doubling time (h) Adenosine growth assay 2 mM: 3.7 h
[9]; [29]
  Avg. Doubling time (h) Adenosine growth assay 1 mM: 3.08 ± 0.25 h
[9]; [30]
  Avg. Doubling time (h) Adenosine growth assay 2 mM: 3.12 ± 0.33 h
[10]; [29]
  Avg. Doubling time (h) Adenosine growth assay 1 mM: 3.77 ± 0.17 h
[10]; [30]
  Avg. Doubling time (h) Adenosine growth assay 2 mM: 3.68 ± 0.42 h
[11]; [29]
  Avg. Doubling time (h) Adenosine growth assay 1 mM: slow growth
[11]; [30]
  Avg. Doubling time (h) Adenosine growth assay 2 mM: slow growth
[12]; [29]
  Avg. Doubling time (h) Adenosine growth assay 1 mM: 4.42 ± 0.25 h
[12]; [30]
  Avg. Doubling time (h) Adenosine growth assay 2 mM: 4.09 ± 0.24 h
[13]; [29]
  Avg. Doubling time (h) Adenosine growth assay 1 mM: ng
[13]; [30]
  Avg. Doubling time (h) Adenosine growth assay 2 mM: ng
[14]; 1 mM adenosine sole purine source, mean±SEM
  Avg. Doubling time (h) Adenosine growth assay 1 mM: ng
[14]; [30]
  Avg. Doubling time (h) Adenosine growth assay 2 mM: ng
[15]; [29]
  Avg. Doubling time (h) Adenosine growth assay 1 mM: ng
[15]; [30]
  Avg. Doubling time (h) Adenosine growth assay 2 mM: ng
[16]; [29]
  Avg. Doubling time (h) Adenosine growth assay 1 mM: ng
[16]; [30]
  Avg. Doubling time (h) Adenosine growth assay 2 mM: ng
[17]; [29]
  Avg. Doubling time (h) Adenosine growth assay 1 mM: ng
[17]; [30]
  Avg. Doubling time (h) Adenosine growth assay 2 mM: ng
[18]; [29]
  Avg. Doubling time (h) Adenosine growth assay 1 mM: ng
[18]; [30]
  Avg. Doubling time (h) Adenosine growth assay 2 mM: ng
[19]
  Average IC50 (μM) Adenosine: no uptake

## O=c1[nH]cnc2c1ncn2[C@@H]1O[C@H](CO)[C@@H](O)[C@H]1O [inosine]
[20]
  uptake of radioactive inosine: did not show uptake
[21]
  inosine binding by ITC: did not bind
[22]
  uptake of radioactive inosine: did not show uptake
[23]
  uptake of radioactive inosine: did not show uptake
[24]
  inosine binding by ITC: bound with lower affinity
[25]
  inosine binding by ITC: did not bind
[26]
  inosine binding by ITC: bound with lower affinity
[27]
  uptake of radioactive inosine: did not show uptake
[28]
  inosine binding by ITC: did not bind
